Assay results published in US10392368B2, “Pyrazolo and triazolo bicyclic compounds as JAK kinase inhibitors” (THERAVANCE BIOPHARMA R&D IP, LLC, priority 2017, dated 2019).

Experiments:
JAK3 = molecular target: T1, JAK3 (Homo sapiens, UniProt P52333); assay: Biochemical JAK3 kinase assay (LanthaScreen); parameters: GST; purchased Life Technologies; conditions: for JAK3 (pKi)-JAK1 (pKi): selectivity JAK3 over JAK1, difference of pKi
T1 sequence (P52333 1-1124): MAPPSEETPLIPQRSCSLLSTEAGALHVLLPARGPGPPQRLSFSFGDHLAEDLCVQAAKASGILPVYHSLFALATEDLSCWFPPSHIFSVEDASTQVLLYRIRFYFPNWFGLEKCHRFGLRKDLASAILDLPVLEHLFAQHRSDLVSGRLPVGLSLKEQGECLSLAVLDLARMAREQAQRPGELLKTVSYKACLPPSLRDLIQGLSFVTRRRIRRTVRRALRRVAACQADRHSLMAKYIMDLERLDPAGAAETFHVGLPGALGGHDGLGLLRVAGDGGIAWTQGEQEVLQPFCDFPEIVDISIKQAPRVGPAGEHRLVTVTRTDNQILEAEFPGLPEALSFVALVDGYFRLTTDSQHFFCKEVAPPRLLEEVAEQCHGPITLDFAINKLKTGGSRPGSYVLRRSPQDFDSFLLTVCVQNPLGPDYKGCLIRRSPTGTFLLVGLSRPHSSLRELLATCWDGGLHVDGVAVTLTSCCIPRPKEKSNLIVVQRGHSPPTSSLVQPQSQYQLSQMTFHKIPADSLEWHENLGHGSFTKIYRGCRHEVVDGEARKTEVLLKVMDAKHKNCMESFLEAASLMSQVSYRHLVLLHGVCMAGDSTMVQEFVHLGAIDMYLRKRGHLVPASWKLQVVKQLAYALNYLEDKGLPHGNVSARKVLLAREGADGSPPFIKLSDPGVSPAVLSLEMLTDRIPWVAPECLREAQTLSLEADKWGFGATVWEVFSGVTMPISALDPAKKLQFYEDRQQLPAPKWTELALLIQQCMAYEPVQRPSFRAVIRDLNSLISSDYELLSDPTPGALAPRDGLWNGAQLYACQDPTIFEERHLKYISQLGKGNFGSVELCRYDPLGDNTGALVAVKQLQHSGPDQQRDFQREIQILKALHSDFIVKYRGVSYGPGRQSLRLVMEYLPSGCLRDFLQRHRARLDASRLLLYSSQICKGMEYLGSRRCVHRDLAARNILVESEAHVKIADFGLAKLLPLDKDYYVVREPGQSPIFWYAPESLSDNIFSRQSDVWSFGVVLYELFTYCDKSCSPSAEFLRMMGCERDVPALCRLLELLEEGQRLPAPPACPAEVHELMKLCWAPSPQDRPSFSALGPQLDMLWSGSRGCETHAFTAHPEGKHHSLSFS
Method in brief: (§1)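 Recombinant GST-tagged JAK enzymes with GFP-STAT1 peptide substrate in 50 mM HEPES pH 7.5, 10 mM MgCl2, 1 mM EGTA, 0.01% Brij-35; compounds pre-incubated 1 h, then ATP added, 1 h reaction at ambient temperature. TR-FRET (Tb-anti-pSTAT1 pTyr701, 520/495 nm) after EDTA stop; IC50 by 4-parameter fit, converted to pKi via Cheng-Prusoff.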

Tyk2 = molecular target: T2, Tyk2 (Homo sapiens, UniProt P29597); assay: Biochemical Tyk2 kinase assay (LanthaScreen)
T2 construct: GST; purchased Life Technologies
Method in brief: as §1

JAK1 = molecular target: T3, JAK1 (Homo sapiens, UniProt P23458); assay: Biochemical JAK1 kinase assay (LanthaScreen)
T3 construct: GST; purchased Life Technologies
Method in brief: as §1

JAK2 = molecular target: T4, JAK2 (Homo sapiens, UniProt O60674); assay: Biochemical JAK2 kinase assay (LanthaScreen)
T4 construct: GST; purchased Life Technologies
Method in brief: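 pKi values derive from pIC50 via Cheng-Prusoff, with IC50 from a 4-parameter fit of percent-inhibition TR-FRET data using Tb-anti-pSTAT1 (pTyr701) detection. Compound, GST-JAK2 and GFP-STAT1 substrate were pre-incubated 1 h, then ATP started a 1 h ambient reaction (HEPES pH 7.5, 10 mM MgCl2, 1% DMSO).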

[1] = tested on: IL-2 stimulated pSTAT5 in Tall-1 T cells; assay: Cellular JAK3 potency assay: inhibition of IL-2 stimulated pSTAT5 in Tall-1 T cells; type: cell-based, human; conditions: IL-2 stimulated pSTAT5, Tall-1 T cells
Method in brief: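 Inhibition of IL-2-induced pSTAT5 was quantified by AlphaLisa in Tall-1 cell lysates. Compound exposure lasted 1 h before 30 min stimulation with 300 ng/ml IL-2 final.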

T2 sequence (P29597 whole entry): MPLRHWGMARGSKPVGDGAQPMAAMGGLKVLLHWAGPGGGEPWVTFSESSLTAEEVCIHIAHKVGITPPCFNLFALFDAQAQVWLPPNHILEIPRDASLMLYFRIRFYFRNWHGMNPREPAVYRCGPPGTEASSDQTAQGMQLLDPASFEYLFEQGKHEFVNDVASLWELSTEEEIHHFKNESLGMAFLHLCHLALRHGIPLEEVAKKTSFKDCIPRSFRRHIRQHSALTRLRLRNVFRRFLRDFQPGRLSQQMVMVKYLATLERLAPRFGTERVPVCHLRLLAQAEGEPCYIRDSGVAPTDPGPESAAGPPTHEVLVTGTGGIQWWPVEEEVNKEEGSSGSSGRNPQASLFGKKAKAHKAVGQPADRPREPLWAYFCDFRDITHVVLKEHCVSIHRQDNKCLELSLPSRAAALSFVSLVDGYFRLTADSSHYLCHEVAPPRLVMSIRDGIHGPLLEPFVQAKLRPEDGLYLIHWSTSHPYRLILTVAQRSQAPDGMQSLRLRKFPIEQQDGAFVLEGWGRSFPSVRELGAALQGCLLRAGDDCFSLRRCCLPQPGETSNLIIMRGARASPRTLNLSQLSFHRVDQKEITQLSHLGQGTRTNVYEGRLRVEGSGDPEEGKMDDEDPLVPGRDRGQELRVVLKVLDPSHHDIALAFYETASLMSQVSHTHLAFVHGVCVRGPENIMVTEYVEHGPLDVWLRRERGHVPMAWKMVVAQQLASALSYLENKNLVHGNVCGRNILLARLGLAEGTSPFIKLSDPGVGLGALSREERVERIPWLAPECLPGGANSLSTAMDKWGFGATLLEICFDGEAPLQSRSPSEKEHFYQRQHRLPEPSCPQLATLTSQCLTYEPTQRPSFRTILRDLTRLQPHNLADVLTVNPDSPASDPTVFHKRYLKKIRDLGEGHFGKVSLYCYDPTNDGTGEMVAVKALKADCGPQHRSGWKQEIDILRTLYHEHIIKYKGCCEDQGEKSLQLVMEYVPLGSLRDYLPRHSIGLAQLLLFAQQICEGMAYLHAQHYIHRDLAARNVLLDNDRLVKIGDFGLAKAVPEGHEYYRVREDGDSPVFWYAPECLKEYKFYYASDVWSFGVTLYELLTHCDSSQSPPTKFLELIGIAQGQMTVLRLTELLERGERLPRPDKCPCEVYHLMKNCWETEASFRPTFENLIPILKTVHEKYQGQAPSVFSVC
T4 sequence (O60674 whole entry): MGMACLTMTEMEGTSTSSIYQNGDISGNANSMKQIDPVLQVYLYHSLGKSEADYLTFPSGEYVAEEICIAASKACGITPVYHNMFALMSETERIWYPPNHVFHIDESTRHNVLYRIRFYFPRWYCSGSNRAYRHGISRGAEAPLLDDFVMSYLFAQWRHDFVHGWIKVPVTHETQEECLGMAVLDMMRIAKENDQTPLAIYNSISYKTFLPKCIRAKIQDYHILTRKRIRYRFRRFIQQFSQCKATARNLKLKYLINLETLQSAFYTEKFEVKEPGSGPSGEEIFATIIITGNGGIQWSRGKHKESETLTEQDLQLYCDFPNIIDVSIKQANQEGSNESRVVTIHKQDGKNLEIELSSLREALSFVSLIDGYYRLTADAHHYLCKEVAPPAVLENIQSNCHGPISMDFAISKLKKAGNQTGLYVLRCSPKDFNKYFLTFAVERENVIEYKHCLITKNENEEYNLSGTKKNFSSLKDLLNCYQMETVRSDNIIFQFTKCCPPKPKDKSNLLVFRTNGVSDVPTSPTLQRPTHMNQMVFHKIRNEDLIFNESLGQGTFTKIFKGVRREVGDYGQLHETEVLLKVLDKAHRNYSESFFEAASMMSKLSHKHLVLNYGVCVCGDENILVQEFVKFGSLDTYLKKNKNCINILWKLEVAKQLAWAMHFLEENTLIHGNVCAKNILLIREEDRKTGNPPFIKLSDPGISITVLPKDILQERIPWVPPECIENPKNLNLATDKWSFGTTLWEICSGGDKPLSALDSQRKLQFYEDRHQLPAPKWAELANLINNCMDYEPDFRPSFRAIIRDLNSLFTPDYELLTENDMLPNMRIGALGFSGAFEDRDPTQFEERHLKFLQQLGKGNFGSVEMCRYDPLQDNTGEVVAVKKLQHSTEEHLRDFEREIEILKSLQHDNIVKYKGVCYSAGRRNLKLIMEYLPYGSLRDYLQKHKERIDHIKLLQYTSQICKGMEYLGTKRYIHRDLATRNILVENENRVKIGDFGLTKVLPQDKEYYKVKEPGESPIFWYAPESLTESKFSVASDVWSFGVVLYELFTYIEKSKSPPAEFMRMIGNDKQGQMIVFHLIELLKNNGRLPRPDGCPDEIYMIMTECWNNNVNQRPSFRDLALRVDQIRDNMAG
T3 sequence (P23458 whole entry): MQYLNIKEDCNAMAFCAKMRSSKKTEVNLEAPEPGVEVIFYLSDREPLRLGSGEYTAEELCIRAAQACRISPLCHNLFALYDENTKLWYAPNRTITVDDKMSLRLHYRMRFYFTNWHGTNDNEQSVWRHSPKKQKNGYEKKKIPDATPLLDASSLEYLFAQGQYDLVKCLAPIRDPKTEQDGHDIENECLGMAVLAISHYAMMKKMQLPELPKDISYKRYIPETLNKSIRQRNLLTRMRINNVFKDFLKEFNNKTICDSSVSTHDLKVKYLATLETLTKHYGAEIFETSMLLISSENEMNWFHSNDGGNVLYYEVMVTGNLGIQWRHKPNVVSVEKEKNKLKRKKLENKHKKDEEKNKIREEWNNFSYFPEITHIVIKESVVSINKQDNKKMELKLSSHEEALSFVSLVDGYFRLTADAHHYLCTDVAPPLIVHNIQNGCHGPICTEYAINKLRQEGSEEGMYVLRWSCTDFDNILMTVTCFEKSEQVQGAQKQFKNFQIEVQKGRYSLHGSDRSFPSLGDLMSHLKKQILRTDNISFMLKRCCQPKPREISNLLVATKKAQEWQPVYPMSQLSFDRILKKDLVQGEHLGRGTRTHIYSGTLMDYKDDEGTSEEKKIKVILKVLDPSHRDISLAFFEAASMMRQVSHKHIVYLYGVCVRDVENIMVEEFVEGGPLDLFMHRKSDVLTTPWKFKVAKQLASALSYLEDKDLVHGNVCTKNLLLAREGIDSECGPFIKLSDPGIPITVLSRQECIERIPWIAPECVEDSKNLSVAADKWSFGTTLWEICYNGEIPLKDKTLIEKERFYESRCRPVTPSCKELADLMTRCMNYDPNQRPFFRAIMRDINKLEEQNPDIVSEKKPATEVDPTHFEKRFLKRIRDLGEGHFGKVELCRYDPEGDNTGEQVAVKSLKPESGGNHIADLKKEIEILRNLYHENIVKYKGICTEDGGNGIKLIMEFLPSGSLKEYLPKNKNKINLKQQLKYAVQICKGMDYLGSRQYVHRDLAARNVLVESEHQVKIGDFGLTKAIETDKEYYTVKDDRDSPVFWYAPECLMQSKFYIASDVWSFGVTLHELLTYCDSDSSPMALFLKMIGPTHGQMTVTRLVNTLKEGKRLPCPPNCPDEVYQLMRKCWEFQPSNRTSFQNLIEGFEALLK

Structure (SMILES)	JAK 3 (pKi) (JAK3)	JAK3 (pKi)-JAK1 (pKi) (JAK3)	Tyk 2 (pKi) (Tyk2)	JAK 1 (pKi) (JAK1)	JAK 2 (pKi) (JAK2)	Tall-1 (pIC50) [1]
C=CC(=O)N1CC[C@@H](Oc2nc(-c3ccc(O)cc3)nc3[nH]ncc23)C[C@H]1C [Compound 13-10]	B (a pKi value between 9 and 10 (Ki between 1 nM and 0.1 nM))	A (a value of 3 or above)	E (a pKi value of 7 or below (Ki of 100 nM or above))	E (a pKi value of 7 or below (Ki of 100 nM or above))	E (a pKi value of 7 or below (Ki of 100 nM or above))	B (a pIC50 value between 6.7 (included) and 7.5 (IC50 between 200 nM and 32 nM))
C=CC(=O)N1CCC(Oc2cc(-c3ccc(O)cc3)nc3[nH]ncc23)CC1C (stereo not drawn) [Compound 13-11]	A (a pKi value≥10 (Ki≤0.1 nM))	A (a value of 3 or above)	E (a pKi value of 7 or below (Ki of 100 nM or above))	E (a pKi value of 7 or below (Ki of 100 nM or above))	E (a pKi value of 7 or below (Ki of 100 nM or above))	A (a pIC50 value≥7.5 (IC50≤32 nM))
C=CC(=O)N1CCC(Oc2cc(-c3ccc(O)cc3)nc3[nH]ncc23)CC1C (stereo not drawn) [Compound 13-12]	B (a pKi value between 9 and 10 (Ki between 1 nM and 0.1 nM))	A (a value of 3 or above)	E (a pKi value of 7 or below (Ki of 100 nM or above))	E (a pKi value of 7 or below (Ki of 100 nM or above))	E (a pKi value of 7 or below (Ki of 100 nM or above))	B (a pIC50 value between 6.7 (included) and 7.5 (IC50 between 200 nM and 32 nM))
C=CC(=O)N1CCC(Oc2cc(-c3ccc(O)cc3)nc3[nH]ncc23)CC1C (stereo not drawn) [Compound 13-13]	B (a pKi value between 9 and 10 (Ki between 1 nM and 0.1 nM))	A (a value of 3 or above)	E (a pKi value of 7 or below (Ki of 100 nM or above))	E (a pKi value of 7 or below (Ki of 100 nM or above))	E (a pKi value of 7 or below (Ki of 100 nM or above))	C (a pIC50 value between 6 and 6.7 (IC50 between 1 μM and 200 nM))
C=CC(=O)N1CCC(C)(Oc2cc(-c3ccc(O)cc3Cl)cc3[nH]ncc23)C1 (stereo not drawn) [Compound 13-14]	A (a pKi value≥10 (Ki≤0.1 nM))	A (a value of 3 or above)	E (a pKi value of 7 or below (Ki of 100 nM or above))	E (a pKi value of 7 or below (Ki of 100 nM or above))	D (a pKi value between 7 and 8 (Ki between 100 nM and 10 nM))	A (a pIC50 value≥7.5 (IC50≤32 nM))
C=CC(=O)N1CCC(C)(Oc2cc(-c3ccc(O)cc3)cc3[nH]ncc23)C1 (stereo not drawn) [Compound 13-15]	B (a pKi value between 9 and 10 (Ki between 1 nM and 0.1 nM))	A (a value of 3 or above)	E (a pKi value of 7 or below (Ki of 100 nM or above))	E (a pKi value of 7 or below (Ki of 100 nM or above))	D (a pKi value between 7 and 8 (Ki between 100 nM and 10 nM))	B (a pIC50 value between 6.7 (included) and 7.5 (IC50 between 200 nM and 32 nM))
C=CC(=O)N1CC2(CCC2Oc2nc(-c3ccc(O)cc3)nc3[nH]ncc23)C1 (stereo not drawn) [Compound 13-16]	B (a pKi value between 9 and 10 (Ki between 1 nM and 0.1 nM))	A (a value of 3 or above)	E (a pKi value of 7 or below (Ki of 100 nM or above))	E (a pKi value of 7 or below (Ki of 100 nM or above))	E (a pKi value of 7 or below (Ki of 100 nM or above))	B (a pIC50 value between 6.7 (included) and 7.5 (IC50 between 200 nM and 32 nM))
